Converted amounts (≈) assume the structure as drawn. The source made the active and inactive calls. The rule behind the calls is not given here.
How the values were obtained:
RAW264.7 [1] = assay: Antiinflammatory activity in LPS-stimulated mouse RAW264.7 cells assessed as reduction in IL-1beta expression at 10 uM co-incubated with LPS for 24 hrs by RT-PCR method relative to untreated control; assay type: functional
RAW264.7 [2] = assay: Antiinflammatory activity in LPS-stimulated mouse RAW264.7 cells assessed as reduction in IL-1beta expression at 20 uM co-incubated with LPS for 24 hrs by RT-PCR method relative to untreated control; assay type: functional
RAW264.7 [3] = assay: Antiinflammatory activity in LPS-stimulated mouse RAW264.7 cells assessed as reduction in IL-1beta expression at 30 uM co-incubated with LPS for 24 hrs by RT-PCR method relative to untreated control; assay type: functional
RAW264.7 [4] = assay: Antiinflammatory activity in LPS-stimulated mouse RAW264.7 cells assessed as reduction in IL6 expression at 10 uM co-incubated with LPS for 24 hrs by RT-PCR method relative to untreated control; assay type: functional
RAW264.7 [5] = assay: Antiinflammatory activity in LPS-stimulated mouse RAW264.7 cells assessed as reduction in IL6 expression at 20 uM co-incubated with LPS for 24 hrs by RT-PCR method relative to untreated control; assay type: functional
RAW264.7 [6] = assay: Antiinflammatory activity in LPS-stimulated mouse RAW264.7 cells assessed as reduction in IL6 expression at 30 uM co-incubated with LPS for 24 hrs by RT-PCR method relative to untreated control; assay type: functional
RAW264.7 [7] = assay: Antiinflammatory activity in LPS-stimulated mouse RAW264.7 cells assessed as reduction in iNOS expression co-incubated with LPS for 24 hrs by RT-PCR method relative to untreated control; assay type: functional, cell-based
RAW264.7 [8] = assay: Antiinflammatory activity in LPS-stimulated mouse RAW264.7 cells assessed as reduction in TNFalpha level at 10 to 40 uM co-incubated with LPS for 24 hrs by ELISA method; assay type: functional, cell-based
[9] = Cytotoxicity against LPS-stimulated mouse RAW264.7 cells assessed as cell viability at 40 uM after 24 hrs by MTT assay (reference value: 100%); assay type: cell-based; details: LPS-stimulated RAW264.7 cells, read-out: Activity
[10] = Cytotoxicity against LPS-stimulated mouse RAW264.7 cells assessed as cell viability at 10 uM after 24 hrs by MTT assay (reference value: 100%); assay type: cell-based; details: LPS-stimulated RAW264.7 cells, read-out: Activity
[11] = Cytotoxicity against LPS-stimulated mouse RAW264.7 cells assessed as cell viability at 20 uM after 24 hrs by MTT assay (reference value: 100%); assay type: cell-based; details: LPS-stimulated RAW264.7 cells, read-out: Activity
RAW264.7 [12] = assay: Antiinflammatory activity in LPS-stimulated mouse RAW264.7 cells assessed as reduction in nitric oxide production at 40 uM after 24 hrs by Griess method based ELISA (reference value: 52.4 +/- 0.9 uM); assay type: functional
RAW264.7 [13] = assay: Antiinflammatory activity in LPS-stimulated mouse RAW264.7 cells assessed as reduction in nitric oxide production at 10 uM after 24 hrs by Griess method based ELISA (reference value: 52.4 +/- 0.9 uM); assay type: functional
RAW264.7 [14] = assay: Antiinflammatory activity in LPS-stimulated mouse RAW264.7 cells assessed as reduction in nitric oxide production at 20 uM after 24 hrs by Griess method based ELISA (reference value: 52.4 +/- 0.9 uM); assay type: functional
RAW264.7 [15] = assay: Antiinflammatory activity in LPS-stimulated mouse RAW264.7 cells assessed as reduction in nitric oxide production after 24 hrs by Griess method based ELISA; assay type: functional, cell-based; details: RAW264.7, 24 h
RAW264.7 [16] = assay: Induction of iNOS mRNA expression in LPS-non-stimulated mouse RAW264.7 cells by RT-PCR method; assay type: cell-based
RAW264.7 [17] = assay: Antiinflammatory activity in LPS-stimulated mouse RAW264.7 cells assessed as reduction in iNOS expression at 10 uM co-incubated with LPS for 24 hrs by RT-PCR method relative to untreated control; assay type: functional
RAW264.7 [18] = assay: Antiinflammatory activity in LPS-stimulated mouse RAW264.7 cells assessed as reduction in iNOS expression at 20 uM co-incubated with LPS for 24 hrs by RT-PCR method relative to untreated control; assay type: functional
RAW264.7 [19] = assay: Antiinflammatory activity in LPS-stimulated mouse RAW264.7 cells assessed as reduction in iNOS expression at 30 uM co-incubated with LPS for 24 hrs by RT-PCR method relative to untreated control; assay type: functional
RAW264.7 [20] = assay: Antiinflammatory activity in LPS-stimulated mouse RAW264.7 cells assessed as reduction in COX2 expression at 10 uM co-incubated with LPS for 24 hrs by RT-PCR method relative to untreated control; assay type: functional
RAW264.7 [21] = assay: Antiinflammatory activity in LPS-stimulated mouse RAW264.7 cells assessed as reduction in COX2 expression at 20 uM co-incubated with LPS for 24 hrs by RT-PCR method relative to untreated control; assay type: functional
RAW264.7 [22] = assay: Antiinflammatory activity in LPS-stimulated mouse RAW264.7 cells assessed as reduction in COX2 expression at 30 uM co-incubated with LPS for 24 hrs by RT-PCR method relative to untreated control; assay type: functional
RAW264.7 [23] = assay: Antiinflammatory activity in LPS-stimulated mouse RAW264.7 cells assessed as reduction in TNFalpha expression at 10 uM co-incubated with LPS for 24 hrs by RT-PCR method relative to untreated control; assay type: functional
RAW264.7 [24] = assay: Antiinflammatory activity in LPS-stimulated mouse RAW264.7 cells assessed as reduction in TNFalpha expression at 20 uM co-incubated with LPS for 24 hrs by RT-PCR method relative to untreated control; assay type: functional
RAW264.7 [25] = assay: Antiinflammatory activity in LPS-stimulated mouse RAW264.7 cells assessed as reduction in TNFalpha expression at 30 uM co-incubated with LPS for 24 hrs by RT-PCR method relative to untreated control; assay type: functional
[26] = Cytotoxicity against LPS-stimulated mouse RAW264.7 cells assessed as cell viability at 1.5 uM after 24 hrs by MTT assay (reference value: 100%); assay type: cell-based; details: LPS-stimulated RAW264.7 cells, read-out: Activity
[27] = Cytotoxicity against LPS-stimulated mouse RAW264.7 cells assessed as cell viability at 3 uM after 24 hrs by MTT assay (reference value: 100%); assay type: cell-based; details: LPS-stimulated RAW264.7 cells, read-out: Activity
RAW264.7 [28] = assay: Antiinflammatory activity in LPS-stimulated mouse RAW264.7 cells assessed as reduction in nitric oxide production at 1.5 uM after 24 hrs by Griess method based ELISA (reference value: 52.4 +/- 0.9 uM); assay type: functional
RAW264.7 [29] = assay: Antiinflammatory activity in LPS-stimulated mouse RAW264.7 cells assessed as reduction in nitric oxide production at 3 uM after 24 hrs by Griess method based ELISA (reference value: 52.4 +/- 0.9 uM); assay type: functional

With C[C@@H]1[C@H]2[C@H]3C[C@H](O)[C@@H]4[C@@]5(C)CC[C@H](O[C@H]6O[C@H](CO[C@H]7O[C@H](CO[C@H]8O[C@H](CO[C@H]9O[C@H](CO)[C@@H](O)[C@H](O)[C@H]9O)[C@@H](O)[C@H](O)[C@H]8O)[C@@H](O)[C@H](O)[C@H]7O)[C@@H](O)[C@H](O)[C@H]6O)C(C)(C)[C@@H]5CC[C@@]4(C)[C@]3(C)CC[C@@]2(C)CC[C@H]1C the “fold change (FC)” value (RAW264.7 [1]) was 0.7, the “fold change (FC)” value (RAW264.7 [2]) was 0.7 and the “fold change (FC)” value (RAW264.7 [3]) was 0.6. For the same molecule, the “fold change (FC)” value (RAW264.7 [4]) was 0.5, the “fold change (FC)” value (RAW264.7 [5]) was 0.6 and the “fold change (FC)” value (RAW264.7 [6]) was 0.7. For the same molecule, the inhibition (RAW264.7 [7]) was “Dose-dependent effect”, the inhibition (RAW264.7 [8]) was “Active” and the viability at 24 h, 40 µM [9] was 98.7%. It also gave a viability at 24 h, 10 µM [10] of 111%, a viability at 24 h, 20 µM [11] of 126% and an Activity (RAW264.7 [12]) of 7.1 µM. The Activity (RAW264.7 [13]) was 46.4 µM, the Activity (RAW264.7 [14]) was 39.8 µM and the IC50 (RAW264.7 [15]) was 25.9 µg/mL (≈ 23.7 µM). The Activity (RAW264.7 [16]) was “Non-toxic”, the “fold change (FC)” value (RAW264.7 [17]) was 0.7 and the “fold change (FC)” value (RAW264.7 [18]) was 0.7. For the same molecule, the “fold change (FC)” value (RAW264.7 [19]) was 0.4, the “fold change (FC)” value (RAW264.7 [20]) was 0.5 and the “fold change (FC)” value (RAW264.7 [21]) was 0.6. The “fold change (FC)” value (RAW264.7 [22]) was 0.5, the “fold change (FC)” value (RAW264.7 [23]) was 0.6 and the “fold change (FC)” value (RAW264.7 [24]) was 0.7. For the same molecule, the “fold change (FC)” value (RAW264.7 [25]) was 0.6.

O=c1c(O)c(-c2ccc(O)c(O)c2)oc2cc(O)cc(O)c12 [QUERCETIN] showed a viability at 24 h, 1.5 µM [26] of 104%, a viability at 24 h, 3 µM [27] of 104% and an Activity (RAW264.7 [28]) of 20.8 µM. It also gave an Activity (RAW264.7 [29]) of 13.5 µM and an IC50 (RAW264.7 [15]) of 2.9 µg/mL (≈ 9.6 µM).

— ChEMBL document CHEMBL3352216, “Triterpene glycosides from red ginseng marc and their anti-inflammatory activities” (Bioorg Med Chem Lett, 2014)
